# Reference: ChEMBL document CHEMBL1151072, “Benzoxepin and benzothiepin derivatives as potent, orally active inhibitors of 5-lipoxygenase” (Bioorg Med Chem Lett, 1994)
# Columns and labels:
# Canis familiaris [1] = test: Inhibitory activity against LTB4 production upon oral administration at a dose of 1.0 mg/Kg (0.08-6.0 hour) in dog ex vivo model; format: functional; conditions: Canis lupus familiaris
# Canis familiaris [2] = test: Inhibitory activity against LTB4 production upon intravenous administration at a dose of 1.0 mg/Kg (0.08-6.0 hour) in dog ex vivo model; format: functional; conditions: Canis lupus familiaris
# Canis familiaris [3] = test: Inhibitory activity against LTB4 production upon intravenous administration at a dose of 1.0 mg/Kg (0.08 hours) in dog ex vivo model; format: functional; conditions: Canis lupus familiaris
# Canis familiaris [4] = test: Duration of action on LTB4 production upon intravenous administration at a dose of 1.0 mg/Kg in dog ex vivo model; format: functional, Canis lupus familiaris
# Canis familiaris [5] = test: Inhibitory activity against LTB4 production upon oral administration at a dose of 1.0 mg/Kg (1 hour) in dog ex vivo model; format: functional; conditions: Canis lupus familiaris
# Canis familiaris [6] = test: Inhibitory activity against LTB4 production upon intravenous administration at a dose of 1.0 mg/Kg (0.08-1 hour) in dog ex vivo model; format: functional; conditions: Canis lupus familiaris
# Canis familiaris [7] = test: Inhibitory activity against LTB4 production upon oral administration at a dose of 1.0 mg/Kg (0.25-6.0 hour) in dog ex vivo model; format: functional; conditions: Canis lupus familiaris
# Canis familiaris [8] = test: Duration of action on LTB4 production upon oral administration at a dose of 1.0 mg/Kg in dog ex vivo model; format: functional, Canis lupus familiaris
# Canis familiaris [9] = test: Inhibitory activity against LTB4 production upon intravenous administration at a dose of 1.0 mg/Kg (0.25-0.5 hour) in dog ex vivo model; format: functional; conditions: Canis lupus familiaris
# Canis familiaris [10] = test: Inhibitory activity against LTB4 production upon oral administration at a dose of 1.0 mg/Kg (0.5 hours) in dog ex vivo model; format: functional; conditions: Canis lupus familiaris
# Canis familiaris [11] = test: Inhibitory activity against LTB4 production upon intravenous administration at a dose of 1.0 mg/Kg (3 hours) in dog ex vivo model; format: functional; conditions: Canis lupus familiaris
# Canis familiaris [12] = test: Inhibitory activity against LTB4 production upon intravenous administration at a dose of 1.0 mg/Kg (0.08-0.5 hour) in dog ex vivo model; format: functional; conditions: Canis lupus familiaris
# Canis familiaris [13] = test: Inhibitory activity against LTB4 production upon oral administration at a dose of 1.0 mg/Kg (0.5-1 hour) in dog ex vivo model; format: functional; conditions: Canis lupus familiaris
structure (smiles),measurement,setting,value
NC(=O)N(O)CC1=Cc2cc(Oc3ccccc3)ccc2OC1,inhibition in vivo at 1 mg/kg,Canis familiaris [1],> 95%
same,inhibition in vivo at 1 mg/kg,Canis familiaris [2],> 95%
NC(=O)N(O)CC1=Cc2ccc(Oc3ccccc3)cc2OCC1,inhibition in vivo at 1 mg/kg,Canis familiaris [3],> 95%
same,Duration of action,Canis familiaris [4],1.1
same,inhibition in vivo at 1 mg/kg,Canis familiaris [5],28%
NC(=O)N(O)CC1=Cc2cc(Oc3ccccc3)ccc2SCC1,Duration of action,Canis familiaris [4],2.8
same,inhibition in vivo at 1 mg/kg,Canis familiaris [6],> 95%
CNC(=O)N(O)CC1=Cc2cc(Oc3ccc(F)cc3)ccc2OCC1,Duration of action,Canis familiaris [4],13
same,inhibition in vivo at 1 mg/kg,Canis familiaris [6],> 95%
same,inhibition in vivo at 1 mg/kg,Canis familiaris [7],> 95%
same,Duration of action,Canis familiaris [8],13
NC(=O)N(O)CC1=Cc2cc(Oc3ccc(F)cc3)ccc2OCC1,Duration of action,Canis familiaris [4],>24
same,inhibition in vivo at 1 mg/kg,Canis familiaris [9],> 95%
same,Duration of action,Canis familiaris [8],10
same,inhibition in vivo at 1 mg/kg,Canis familiaris [5],> 95%
NC(=O)N(O)CC1=Cc2cc(Oc3ccccc3)ccc2OCC1,Duration of action,Canis familiaris [4],19.4
same,inhibition in vivo at 1 mg/kg,Canis familiaris [10],94%
same,inhibition in vivo at 1 mg/kg,Canis familiaris [11],80%
same,Duration of action,Canis familiaris [8],9.1
CC(c1cc2ccccc2s1)N(O)C(N)=O (stereo unspecified) [ZILEUTON],inhibition in vivo at 1 mg/kg,Canis familiaris [12],> 90%
same,inhibition in vivo at 1 mg/kg,Canis familiaris [13],> 90%
